Among the test systems are LOX IMVI; DU-145; MDA-MB-231; M14; COLO 205; NCI-H226; HOP-92; SF-268; 786-0; EKVX; OVCAR-4; SK-MEL-28; UACC-257; MOLT-4; SF-295; MDA-N; CAKI-1; RXF 393; SNB-75; T47D.
Holding throughout (assay): NCI tumour cell line growth inhibition, 48 h

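Values below derive from 48-hour exposures of cells grown in 96-well plates, with endpoints linearly interpolated between the two concentrations bracketing the appropriate inhibition level. Abbreviation: GI50, concentration required for 50% inhibition of growth.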 Activity calls are given as the source filed them. Rule as the data show it: active = GI50 up to about 1.1 µM and inactive = higher.

On to `Cc1c(Cl)ccc2c(=O)c3cccc(CC(=O)O)c3oc12`, for which the GI50 in the experiment with LOX IMVI, in the experiment with DU-145, with MDA-MB-231, with M14, in the experiment on COLO 205 and with NCI-H226 was > 100 µM (inactive) in each case. Moreover, the GI50 in the experiment with HOP-92, in the experiment on SF-268, in the experiment with 786-0, in the experiment on EKVX, in the experiment on OVCAR-4 and with SK-MEL-28 was > 100 µM (inactive) throughout. In addition, the GI50 in the experiment with UACC-257, in the experiment with MOLT-4, with SF-295, in the experiment with MDA-N and in the experiment on CAKI-1 was > 100 µM (inactive) each time.

Consider `[N-]=[N+]=C(C(=O)C(=[N+]=[N-])C(=O)c1ccccc1)C(=O)c1ccccc1`, for which the GI50 in the experiment on LOX IMVI, with DU-145, in the experiment with MDA-MB-231, in the experiment on M14, with COLO 205 and in the experiment on RXF 393 was > 100 µM (inactive) each time. Also, the GI50 in the experiment on SNB-75, with SF-268, with 786-0, in the experiment with EKVX, in the experiment on SK-MEL-28 and in the experiment with UACC-257 was > 100 µM (inactive) in each case. The GI50 with SF-295 and with MDA-N was > 100 µM (inactive) throughout.

As to `CCCCCCCCCCCCCC(=O)O.O=CC(O)C(O)C(OC1OC(CO)C(O)C(O)C1O)C(O)CO` (configuration not stated), the GI50 in the experiment with DU-145 is > 100 µM (inactive); with MDA-MB-231, 28.8 µM (inactive); with M14 it was > 100 µM (inactive); in the experiment on COLO 205, 73.5 µM (inactive); with NCI-H226 it was 30.5 µM (inactive); in the experiment on RXF 393, > 100 µM (inactive). For the same compound, the GI50 was 48.3 µM (inactive) in the experiment on HOP-92; > 100 µM (inactive) with SNB-75; > 100 µM (inactive) in the experiment on SF-268; > 100 µM (inactive) with 786-0; > 100 µM (inactive) in the experiment on OVCAR-4; > 100 µM (inactive) with SK-MEL-28. Further, the GI50 in the experiment on UACC-257 was > 100 µM (inactive); in the experiment on SF-295, 73.1 µM (inactive); with T47D it was > 100 µM (inactive); in the experiment on CAKI-1 it was 71.6 µM (inactive).

As to `Oc1nc2cc3nc(O)c(O)nc3cc2nc1O`, the GI50 in the experiment on LOX IMVI, with DU-145, with MDA-MB-231, in the experiment on M14, in the experiment on COLO 205 and in the experiment on NCI-H226 was > 100 µM (inactive) in each case. In addition, the GI50 in the experiment on RXF 393, in the experiment with SNB-75, in the experiment on SF-268, with 786-0, with EKVX and in the experiment on SK-MEL-28 was > 100 µM (inactive) in each case. Also, the GI50 in the experiment with UACC-257, in the experiment on MOLT-4, in the experiment on SF-295 and in the experiment with CAKI-1 was > 100 µM (inactive) each time.

As to `Fc1ccc(C2(CCCN3CCc4[nH]c5cc(F)ccc5c4C3)OCCO2)cc1`, the GI50 was 12.6 µM (inactive) in the experiment with LOX IMVI; 14.7 µM (inactive) with DU-145; 18.7 µM (inactive) with MDA-MB-231; 2.53 µM (inactive) in the experiment on M14; 8.75 µM (inactive) in the experiment with COLO 205; 19 µM (inactive) with NCI-H226. In addition, the GI50 is 13.5 µM (inactive) with RXF 393; 2.99 µM (inactive) in the experiment on HOP-92; 12.1 µM (inactive) in the experiment on SNB-75; 15.3 µM (inactive) in the experiment with SF-268; 13.9 µM (inactive) in the experiment with 786-0; 15.3 µM (inactive) with EKVX. The GI50 with OVCAR-4 was 13.3 µM (inactive); with SK-MEL-28 it was 12.6 µM (inactive); in the experiment on UACC-257 it was 4.71 µM (inactive); in the experiment with MOLT-4, 6.67 µM (inactive); in the experiment on SF-295 it was 13.9 µM (inactive); in the experiment on T47D, 13.5 µM (inactive).

Regarding `CC1=CC[C@](C)(O)[C@@]2(C)CC[C@H]3C(=C(C)C)C(=O)C[C@]3(C)C[C@H]12`, the GI50 in the experiment with LOX IMVI is 7.93 µM (inactive); with DU-145, > 50 µM (inactive); in the experiment with MDA-MB-231, > 50 µM (inactive); with M14 it was 24.8 µM (inactive); in the experiment with COLO 205, 45.5 µM (inactive); with NCI-H226, > 50 µM (inactive). Also, the GI50 in the experiment with RXF 393 was 30 µM (inactive); in the experiment on HOP-92 it was > 50 µM (inactive); in the experiment with SNB-75 it was 26.5 µM (inactive); with SF-268 it was > 50 µM (inactive); in the experiment on 786-0, 15.7 µM (inactive); in the experiment on EKVX, > 50 µM (inactive). The GI50 was > 50 µM (inactive) in the experiment with OVCAR-4; > 50 µM (inactive) with SK-MEL-28; > 50 µM (inactive) with UACC-257; 8.07 µM (inactive) with MOLT-4; > 50 µM (inactive) in the experiment on SF-295; 28.9 µM (inactive) in the experiment with T47D. Further, the GI50 in the experiment on CAKI-1 was 16 µM (inactive).

`N#CC1(C#N)NC(c2ccsc2)C(C#N)(C#N)NC1c1ccsc1` (configuration not stated): the GI50 in the experiment on LOX IMVI, with DU-145, in the experiment on MDA-MB-231, in the experiment on M14, in the experiment on COLO 205 and with NCI-H226 was > 100 µM (inactive) each time. Moreover, the GI50 in the experiment with HOP-92, in the experiment on SNB-75, in the experiment with SF-268, in the experiment with 786-0, with EKVX and with OVCAR-4 was > 100 µM (inactive) in each case. Besides, the GI50 in the experiment on SK-MEL-28, in the experiment with UACC-257, in the experiment with MOLT-4, with SF-295, in the experiment with MDA-N and with CAKI-1 was > 100 µM (inactive) each time.

`O=c1c2c(sc3ccccc13)NCN(CCc1ccccc1)C2`: the GI50 in the experiment with LOX IMVI is 33.5 µM (inactive); with DU-145, 70.5 µM (inactive); in the experiment on MDA-MB-231, 23.5 µM (inactive); with M14, 27 µM (inactive); in the experiment with COLO 205 it was 18.1 µM (inactive); in the experiment on NCI-H226, 32 µM (inactive). In addition, the GI50 in the experiment on RXF 393 is 36.3 µM (inactive); in the experiment on HOP-92, 53 µM (inactive); in the experiment with SNB-75, 16.6 µM (inactive); in the experiment with 786-0, 29.7 µM (inactive); in the experiment on EKVX, 30.8 µM (inactive); in the experiment on OVCAR-4, 36.8 µM (inactive). For the same compound, the GI50 was 34.9 µM (inactive) in the experiment on SK-MEL-28; 33.5 µM (inactive) with UACC-257; 31.2 µM (inactive) with MOLT-4; 20.7 µM (inactive) in the experiment with SF-295; 25.6 µM (inactive) with MDA-N; 41.6 µM (inactive) in the experiment with CAKI-1.

Regarding `COc1c(C)c(C/C=C(\C)CCCCO)c(OC)c(OC)c1OC`, the GI50 in the experiment with LOX IMVI was 25.5 µM (inactive); in the experiment on DU-145, > 100 µM (inactive); in the experiment with MDA-MB-231 it was > 100 µM (inactive); in the experiment on M14, > 100 µM (inactive); in the experiment on COLO 205 it was > 100 µM (inactive); with RXF 393, > 100 µM (inactive). Also, the GI50 with HOP-92, in the experiment with SNB-75, in the experiment with SF-268, with 786-0, in the experiment on EKVX and in the experiment on OVCAR-4 was > 100 µM (inactive) in each case. The GI50 with UACC-257 is > 100 µM (inactive); with MOLT-4, 73.6 µM (inactive); in the experiment with SF-295, 48.6 µM (inactive); in the experiment on MDA-N it was > 100 µM (inactive); in the experiment on CAKI-1, 0.112 µM (active).

With `CC1(C)OCC(COC(=O)C=[N+]=[N-])O1` (configuration not stated), the GI50 in the experiment on LOX IMVI, in the experiment with DU-145, in the experiment with MDA-MB-231, in the experiment with COLO 205, with NCI-H226 and in the experiment with RXF 393 was > 100 µM (inactive) in each case. For the same compound, the GI50 was 14.9 µM (inactive) in the experiment on HOP-92; > 100 µM (inactive) with SF-268; > 100 µM (inactive) with 786-0; > 100 µM (inactive) in the experiment with EKVX; > 100 µM (inactive) with OVCAR-4; > 100 µM (inactive) in the experiment on SK-MEL-28. Besides, the GI50 with UACC-257, in the experiment on MOLT-4, in the experiment on SF-295, in the experiment with MDA-N and in the experiment with CAKI-1 was > 100 µM (inactive) throughout.

As for `Cc1n[nH]c(=O)n1/N=C/c1ccco1`, the GI50 in the experiment on DU-145, in the experiment with MDA-MB-231, in the experiment with M14, in the experiment with COLO 205, in the experiment with NCI-H226 and in the experiment with RXF 393 was > 100 µM (inactive) in each case. The GI50 in the experiment with SNB-75, in the experiment on SF-268, in the experiment on 786-0, in the experiment on EKVX, in the experiment on OVCAR-4 and in the experiment with SK-MEL-28 was > 100 µM (inactive) throughout. The GI50 in the experiment with UACC-257, in the experiment with MOLT-4, with SF-295, with T47D and in the experiment with CAKI-1 was > 100 µM (inactive) each time.

Values taken from ChEMBL document CHEMBL1201862, “PubChem BioAssay data set” (2004).
